What was measured:
[1] = test system: Capan-1 cells (K-Ras G12V); experiment: CellTiter-Glo cell viability, Capan-1; type: cell-based, human; conditions: Homo sapiens, CAPAN-1, 120 h, K-Ras G12V, 5-day treatment; read-out: Capan-1 Cell Viability IC50
In short: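 Viability is read as luminescence after five days of compound exposure, with plates first equilibrated to room temperature for roughly 30 minutes. Each signal is expressed as a percentage of the mean DMSO control, and curves are fitted by four-parameter logistic regression.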

[2] = test system: NCI-H358 cells (K-Ras G12C); experiment: CellTiter-Glo cell viability, NCI-H358; type: cell-based, human; conditions: Homo sapiens, NCI-H358, 120 h, K-Ras G12C, 5-day treatment; read-out: H358 Cell Viability IC50
Protocol: Note—The following protocol describes a procedure for monitoring cell viability of K-Ras mutant cancer cell lines in response to a compound of the invention. Other RAS isoforms may be employed, though the number of cells to be seeded will vary based on cell line used.
Test compounds (132.5 nl) were directly dispensed into the assay plates containing cells. […] On day 5, assay plates and their contents were equilibrated to room temperature for approximately 30 minutes. […] Luminescence was measured using the PerkinElmer Enspire. Data were normalized by the following: (Sample signal/Avg. DMSO)*100. The data were fit using a four-parameter logistic fit.

KRAS G13C = KRAS G13C (Homo sapiens (Human), UniProt P01116+P62937, G13C); experiment: Ras-Raf disruption/FRET/MOA assay (BRAF RBD, Cyclophilin A); type: biochemical; conditions: read-out: KRAS G13C FRET IC50
Sequence of KRAS G13C (P01116 other isoform, or with tags, fused parts or gaps G13C): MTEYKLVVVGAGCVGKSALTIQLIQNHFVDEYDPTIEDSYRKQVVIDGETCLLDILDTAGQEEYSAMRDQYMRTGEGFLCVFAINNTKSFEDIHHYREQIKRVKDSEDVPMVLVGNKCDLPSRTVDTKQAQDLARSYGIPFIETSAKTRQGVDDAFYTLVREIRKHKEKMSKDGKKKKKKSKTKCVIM
Sequence of KRAS G13C (P62937 whole entry): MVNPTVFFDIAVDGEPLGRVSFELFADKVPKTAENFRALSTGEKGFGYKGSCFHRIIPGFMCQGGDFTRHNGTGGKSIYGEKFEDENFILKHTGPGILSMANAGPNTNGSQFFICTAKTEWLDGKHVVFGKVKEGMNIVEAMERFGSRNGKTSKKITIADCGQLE
In short: (§1)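 TR-FRET readout: anti-His Eu-W1024 (10 nM) and anti-GST allophycocyanin (50 nM) added after 3 h, 25° C compound incubation, then 1.5 h more. Decrease in FRET ratio versus DMSO wells marks Ras:RAF disruption; IC50 reported.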

KRAS G13D = KRAS G13D (Homo sapiens (Human), UniProt P01116+P62937, G13D); experiment: as above; type: biochemical; conditions: read-out: KRAS G13D FRET data IC50
Sequence of KRAS G13D (P01116 other isoform, or with tags, fused parts or gaps G13D): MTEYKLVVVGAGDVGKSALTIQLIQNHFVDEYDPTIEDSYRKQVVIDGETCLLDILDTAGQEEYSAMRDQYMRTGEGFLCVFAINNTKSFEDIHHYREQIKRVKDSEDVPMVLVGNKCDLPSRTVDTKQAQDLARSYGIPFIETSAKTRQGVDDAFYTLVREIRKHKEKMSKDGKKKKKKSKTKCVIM
Sequence of KRAS G13D (P62937 whole entry): as the sequence (P62937 whole entry) above
In short: as §1

KRAS WT = KRAS WT (Homo sapiens (Human), UniProt P01116+P62937); experiment: as above; type: biochemical; conditions: read-out: KRAS WT FRET data IC50
Sequence of KRAS WT (P01116 other isoform, or with tags, fused parts or gaps): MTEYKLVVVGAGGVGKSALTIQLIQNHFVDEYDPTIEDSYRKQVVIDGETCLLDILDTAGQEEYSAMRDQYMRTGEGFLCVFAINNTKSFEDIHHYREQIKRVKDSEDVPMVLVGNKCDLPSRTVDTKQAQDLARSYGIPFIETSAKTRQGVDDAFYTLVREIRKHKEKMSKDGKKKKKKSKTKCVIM
Sequence of KRAS WT (P62937 whole entry): as the sequence (P62937 whole entry) above
In short: as §1

KRAS G12V = KRAS G12V (Homo sapiens (Human), UniProt P01116+P62937, G12V); experiment: as above; type: biochemical; conditions: read-out: KRAS G12V FRET IC50
Sequence of KRAS G12V (P01116 other isoform, or with tags, fused parts or gaps G12V): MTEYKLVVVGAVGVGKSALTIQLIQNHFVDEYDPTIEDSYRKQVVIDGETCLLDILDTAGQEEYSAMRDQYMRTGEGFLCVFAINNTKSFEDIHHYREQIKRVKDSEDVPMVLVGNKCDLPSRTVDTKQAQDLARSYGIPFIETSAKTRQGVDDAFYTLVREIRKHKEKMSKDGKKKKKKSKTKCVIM
Sequence of KRAS G12V (P62937 whole entry): as the sequence (P62937 whole entry) above
In short: as §1

KRAS G12C = KRAS G12C (Homo sapiens (Human), UniProt P01116+P62937, G12C); experiment: as above; type: biochemical; conditions: read-out: KRAS G12C FRET IC50
Sequence of KRAS G12C (P01116-2 other isoform, or with tags, fused parts or gaps G12C): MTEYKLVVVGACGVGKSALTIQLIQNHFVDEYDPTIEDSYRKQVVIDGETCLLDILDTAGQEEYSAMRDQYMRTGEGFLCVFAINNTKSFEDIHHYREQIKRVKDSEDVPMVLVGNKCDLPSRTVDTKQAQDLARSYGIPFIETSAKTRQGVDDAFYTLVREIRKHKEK
Sequence of KRAS G12C (P62937 whole entry): as the sequence (P62937 whole entry) above
In short: as §1

NRAS G12C = NRAS G12C (Homo sapiens (Human), UniProt P01111+P62937, G12C); experiment: as above; type: biochemical; conditions: read-out: NRAS G12C FRET data IC50
Sequence of NRAS G12C (P01111 whole entry G12C): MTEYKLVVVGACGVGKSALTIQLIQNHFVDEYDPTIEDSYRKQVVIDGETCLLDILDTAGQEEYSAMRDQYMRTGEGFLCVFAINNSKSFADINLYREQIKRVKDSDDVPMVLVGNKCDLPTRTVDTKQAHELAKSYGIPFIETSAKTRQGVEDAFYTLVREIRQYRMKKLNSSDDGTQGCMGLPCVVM
Sequence of NRAS G12C (P62937 whole entry): as the sequence (P62937 whole entry) above
In short: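 TR-FRET read after 1.5 h with 10 nM anti-His Eu-W1024 and 50 nM anti-GST APC, following 3 h at 25 °C of GMPPNP-loaded His6-Ras (12.5 nM), GST-BRAF RBD (50 nM) and Cyclophilin A (25 μM) with compound from 30 μM final, 10 points, 3-fold. IC50 reported; pH 7.3 HEPES, 100 mM NaCl.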

KRAS G12S = KRAS G12S (Homo sapiens (Human), UniProt P01116+P62937, G12S); experiment: as above; type: biochemical; conditions: read-out: KRAS G12S FRET IC50
Sequence of KRAS G12S (P01116 other isoform, or with tags, fused parts or gaps G12S): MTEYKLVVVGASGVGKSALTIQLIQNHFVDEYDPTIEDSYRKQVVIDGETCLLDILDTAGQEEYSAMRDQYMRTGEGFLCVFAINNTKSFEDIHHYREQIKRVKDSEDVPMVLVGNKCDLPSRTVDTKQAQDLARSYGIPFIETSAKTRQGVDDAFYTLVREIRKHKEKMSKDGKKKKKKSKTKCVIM
Sequence of KRAS G12S (P62937 whole entry): as the sequence (P62937 whole entry) above
In short: as §1

KRAS G12D = KRAS G12D (Homo sapiens (Human), UniProt P01116+P62937, G12D); experiment: as above; type: biochemical; conditions: read-out: KRAS G12D FRET IC50
Sequence of KRAS G12D (P01116 other isoform, or with tags, fused parts or gaps G12D): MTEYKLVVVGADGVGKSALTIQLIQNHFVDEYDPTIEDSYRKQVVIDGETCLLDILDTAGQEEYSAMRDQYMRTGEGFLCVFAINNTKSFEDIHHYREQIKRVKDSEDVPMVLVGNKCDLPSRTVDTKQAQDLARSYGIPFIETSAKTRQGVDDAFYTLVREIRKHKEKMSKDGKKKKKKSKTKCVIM
Sequence of KRAS G12D (P62937 whole entry): as the sequence (P62937 whole entry) above
In short: as §1

Row | SMILES | IC50 [2] [µM] | IC50 (KRAS G13C) [µM] | IC50 (KRAS G13D) [µM] | IC50 (KRAS WT) [µM] | IC50 (KRAS G12V) [µM] | IC50 (KRAS G12C) [µM] | IC50 (NRAS G12C) [µM] | IC50 (KRAS G12S) [µM] | IC50 (KRAS G12D) [µM] | IC50 [1] [µM]
1 | CCn1c(-c2cnccc2COC)c2c3cc(ccc31)-c1cc(O)cc(c1)C[C@H](NC(=O)[C@H](C(C)C)N(C)C(=O)O[C@@H]1CCOC1)C(=O)N1CCC[C@H](N1)C(=O)OCC(C)(C)C2 [Compound A82] | 1 to 10 | 0.1 to 1 | 1 to 10 | 0.1 to 1 | 1 to 10 | 0.1 to 1 | 1 to 10 | 1 to 10 | 1 to 10 | 1 to 10
2 | CCn1c(-c2cccnc2[C@H](C)OC)c2c3cc(ccc31)-c1cc(O)cc(c1)C[C@H](NC(=O)[C@H](C(C)C)N(C)C(=O)[C@H]1CCN(C(=O)CCc3ccccc3)C1)C(=O)N1CCC[C@H](N1)C(=O)OCC(C)(C)C2 [Compound A201] | 0.1 to 1 | 0.01 to 0.1 | 0.1 to 1 | 0.1 to 1 | 0.01 to 0.1 | 0.01 to 0.1 | 0.01 to 0.1 | 0.1 to 1 | 0.1 to 1 | 0.1 to 1
3 | CCn1c(-c2ccccc2[C@H](C)OC)c2c3cc(ccc31)-c1csc(n1)C[C@H](NC(=O)[C@H](C(C)C)N(C)C(=O)[C@H]1CCN(C(=O)OC3COC3)C1)C(=O)N1CCC[C@H](N1)C(=O)OCC(C)(C)C2 [Compound A203] | 0.1 to 1 | 1 to 10 | 1 to 10 | 1 to 10 | 1 to 10 | 1 to 10 | 1 to 10 | 1 to 10 | > 10 | 0.1 to 1
4 | CCn1c(-c2cccnc2[C@H](C)OC)c2c3cc(ccc31)-c1cc(O)cc(c1)C[C@H](NC(=O)[C@H](C(C)C)N(C)C(=O)[C@H]1CCCO1)C(=O)N1CCC[C@H](N1)C(=O)OCC(C)(C)C2 [Compound A240] | 0.01 to 0.1 | 0.01 to 0.1 | 0.1 to 1 | 0.1 to 1 | 0.1 to 1 | 0.01 to 0.1 | 0.01 to 0.1 | 0.1 to 1 | 0.1 to 1 | 0.01 to 0.1
5 | CCn1c(-c2cccnc2[C@H](C)OC)c2c3cc(ccc31)-c1cc(O)cc(c1)C[C@H](NC(=O)[C@H](C(C)C)N(C)C(=O)[C@H]1CCCCNC1)C(=O)N1CCC[C@H](N1)C(=O)OCC(C)(C)C2 [Compound A242] | 0.01 to 0.1 | 0.01 to 0.1 | 0.01 to 0.1 | 0.01 to 0.1 | 0.1 to 1 | 0.01 to 0.1 | 0.01 to 0.1 | 0.01 to 0.1 | 0.01 to 0.1 | 0.1 to 1
6 | CCn1c(-c2cccnc2[C@H](C)OC)c2c3cc(ccc31)-c1csc(n1)C[C@H](NC(=O)[C@H](C(C)C)N(C)C(=O)[C@H]1CCN(C(C)=O)C1)C(=O)N1CCC[C@H](N1)C(=O)OCC(C)(C)C2 [Compound A244] | 1 to 10 | 1 to 10 | > 10 | 1 to 10 | 1 to 10 | 1 to 10 | 1 to 10 | 1 to 10 | > 10 | 0.1 to 1
7 | CCn1c(-c2cccnc2[C@H](C)OC)c2c3cc(ccc31)-c1csc(n1)C[C@H](NC(=O)[C@H](C(C)C)N(C)C(=O)N1CCN(C)CC13CC3)C(=O)N1CCC[C@H](N1)C(=O)OCC(C)(C)C2 [Compound A307] | 0.01 to 0.1 | 1 to 10 | 1 to 10 | 1 to 10 | 1 to 10 | 1 to 10 | 1 to 10 | 1 to 10 | 1 to 10 | 0.1 to 1
8 | CCn1c(-c2cccnc2[C@H](C)OC)c2c3cc(ccc31)-c1csc(n1)C[C@H](NC(=O)[C@H](C(C)C)N(C)C(=O)N1CC3CCC1CN3C)C(=O)N1CCC[C@H](N1)C(=O)OCC(C)(C)C2 [Compound A308] | 0.1 to 1 | 1 to 10 | 1 to 10 | 0.1 to 1 | 1 to 10 | 0.1 to 1 | 0.1 to 1 | 1 to 10 | 1 to 10 | 0.1 to 1
9 | CCn1c(-c2cccnc2[C@H](C)OC)c2c3cc(ccc31)-c1csc(n1)C[C@H](NC(=O)[C@H](C(C)C)N(C)C(=O)N1CCCCC1)C(=O)N1CCC[C@H](N1)C(=O)OCC(C)(C)C2 [Compound A363] | 0.01 to 0.1 | 0.1 to 1 | 0.1 to 1 | 0.01 to 0.1 | 0.1 to 1 | 0.01 to 0.1 | 0.01 to 0.1 | 0.01 to 0.1 | 0.1 to 1 | 0.01 to 0.1

More lines, main results first:

Row | IC50 [2] [µM] | IC50 (KRAS G13C) [µM] | IC50 (KRAS G13D) [µM] | IC50 (KRAS WT) [µM] | IC50 (KRAS G12V) [µM] | IC50 (KRAS G12C) [µM] | IC50 (NRAS G12C) [µM] | IC50 (KRAS G12S) [µM] | IC50 (KRAS G12D) [µM] | SMILES | IC50 [1] [µM]
10 | 1 to 10 | 0.1 to 1 | 0.01 to 0.1 | 0.1 to 1 | 1 to 10 | 0.1 to 1 | 0.1 to 1 | 0.1 to 1 | 0.1 to 1 | CCn1c(-c2cccnc2[C@H](C)OC)c2c3cc(ccc31)-c1cc(O)cc(c1)C[C@H](NC(=O)[C@H](C(C)C)N(C)C(=O)[C@H]1[C@@H]3CNC[C@@H]31)C(=O)N1CCC[C@H](N1)C(=O)OCC(C)(C)C2 [Compound A163] | > 10
11 | 0.01 to 0.1 | 0.01 to 0.1 | 0.1 to 1 | 0.01 to 0.1 | 0.01 to 0.1 | 0.01 to 0.1 | 0.01 to 0.1 | 0.01 to 0.1 | 0.1 to 1 | CCn1c(-c2cccnc2[C@H](C)OC)c2c3cc(ccc31)-c1cc(O)cc(c1)C[C@H](NC(=O)[C@H](C(C)C)N(C)C(=O)C1CCC1)C(=O)N1CCC[C@H](N1)C(=O)OCC(C)(C)C2 [Compound A218] | 0.01 to 0.1
12 | 0.01 to 0.1 | 0.01 to 0.1 | 0.01 to 0.1 | 0.01 to 0.1 | 0.01 to 0.1 | 0.01 to 0.1 | 0.01 to 0.1 | 0.01 to 0.1 | 0.1 to 1 | CCn1c(-c2cccnc2[C@H](C)OC)c2c3cc(ccc31)-c1cc(O)cc(c1)C[C@H](NC(=O)[C@H](C(C)C)N(C)C(=O)C1CC1)C(=O)N1CCC[C@H](N1)C(=O)OCC(C)(C)C2 [Compound A224] | 0.01 to 0.1
13 | 0.01 to 0.1 | 0.01 to 0.1 | 0.01 to 0.1 | 0.01 to 0.1 | 0.01 to 0.1 | 0.01 to 0.1 | 0.01 to 0.1 | 0.01 to 0.1 | 0.01 to 0.1 | CCn1c(-c2cccnc2[C@H](C)OC)c2c3cc(ccc31)-c1cc(O)cc(c1)C[C@H](NC(=O)[C@H](C(C)C)N(C)C(=O)C1Cc3nccn3C1)C(=O)N1CCC[C@H](N1)C(=O)OCC(C)(C)C2 (stereo partly shown) [Compound A249] | 0.1 to 1
14 | 1 to 10 | 0.1 to 1 | 1 to 10 | 1 to 10 | 1 to 10 | 1 to 10 | 1 to 10 | 1 to 10 | > 10 | CCn1c(-c2cnccc2COC)c2c3cc(ccc31)-c1cc(O)cc(c1)C[C@H](NC(=O)C(C)C1CCOCC1)C(=O)N1CCC[C@H](N1)C(=O)OCC(C)(C)C2 (stereo partly shown) [Compound A258] | > 10
15 | 0.01 to 0.1 | 0.1 to 1 | 0.1 to 1 | 0.1 to 1 | 0.1 to 1 | 0.1 to 1 | 0.1 to 1 | 0.1 to 1 | 1 to 10 | CCn1c(-c2cccnc2[C@H](C)OC)c2c3cc(ccc31)-c1csc(n1)C[C@H](NC(=O)[C@H](C(C)C)N(C)C(=O)N1CC(N(C)C(C)C)C1)C(=O)N1CCC[C@H](N1)C(=O)OCC(C)(C)C2 [Compound A318] | 0.01 to 0.1
16 | 0.1 to 1 | 0.1 to 1 | 1 to 10 | 0.1 to 1 | 0.1 to 1 | 0.1 to 1 | 0.1 to 1 | 1 to 10 | 1 to 10 | CCn1c(-c2cccnc2[C@H](C)OC)c2c3cc(ccc31)-c1cccc(c1)C[C@H](NC(=O)[C@H](C(C)C)N(C)C(=O)N1CC(OC)C1)C(=O)N1CCC[C@H](N1)C(=O)OCC(C)(C)C2 [Compound A355] | 0.1 to 1

From patent US20250195521A1 (Revolution Medicines, Inc., priority 2020, published 2025)
